{"source": "patent US20040006783A1", "about": "“Compositions and methods for modulating Rop GTPase activity in plants” (THE REGENTS THE UNIVERSITY OF CALIFORINIA, priority 2002, published 2004)", "key": {"[1]": {"system": "GUS activity in ropgap4-1 seedlings", "assay": "GUS specific activity in ropgap4-1 seedlings", "format": "in vivo, Arabidopsis thaliana"}, "[2]": {"system": "ADH", "assay": "ADH specific activity in cell extracts of treated seedlings"}, "[3]": {"system": "WT seedlings", "settings": "for Viable Seedlings 48 h after Treatment: 30 μM DPI in 3% DMSO, mean ± SE", "description": "(§1) For oxygen deprivation, plates were transferred to an airtight chamber designed to allow entry and exit of 99.998% argon under 0.4 μmols/s^1m^2 per μÅ of light."}, "[4]": {"system": "ropgap4-1 seedlings", "settings": "for Viable Seedlings 48 h after Treatment: ropgap4-1, 30 μM DPI in 3% DMSO, mean ± SE", "description": "as §1"}, "[5]": {"system": "CA-rop2 seedlings", "settings": "for Viable Seedlings 48 h after Treatment: CA-rop2, 30 μM DPI in 3% DMSO, mean ± SE", "description": "as §1"}, "[6]": {"system": "H2O2", "settings": "seedlings treated with caffeine and DPI for 24 h", "protocol": "Caffeine (5 mM) was incorporated into the medium of plates to which seedlings were transferred. […] Control seedlings were treated with 3% (v/v) DMSO or transferred to plates not containing caffeine.\nH2O2 levels were measured using a modification of the Terashima (1998) method (Terashima et al., Physiol. Plant. 103:295-303 (1998)). Tissue (0.5 g) was homogenized under liquid nitrogen, hydrated in 3 ml of 5% (w/v) metaphosphoric acid and centrifuged at 1,500×g at 4° C. for 20 min. The pH of the supernatant was adjusted to pH 7 with 1M Tricine, 6M NaOH. H2O2 levels were measured in a 500-μl reaction containing 200 mM MOPS-KOH (pH 7.8), 50 mM NADH in 10 mM potassium phosphate (pH 7.8). Absorbance at 340 nm was measured, 0.5 U of Streptococcusfaecalis NADH peroxidase (Sigma) was added, the sample was incubated for 1 h and absorbance at 340 nm was re-measured. H2O2 levels were determined from the decrease in absorbance in 60 min using a standard curve generated from similarly processed H2O2 standards."}, "[7]": {"system": "DN-rop2 seedlings", "settings": "for Viable Seedlings 48 h after Treatment: DN-rop2, 30 μM DPI in 3% DMSO, mean ± SE", "description": "as §1"}}, "note": "Read-outs that look alike come from different tables or passages of the source.", "data": [{"smiles": "Cn1c(=O)c2c(ncn2C)n(C)c1=O", "note": "[Caffeine]", "values": [{"measurement": "effect on GUS activity", "setting": "[1]; caffeine", "result": "rose"}, {"measurement": "caffeine promoted increase in ADH specific activity", "setting": "[2]; CA-rop2 seedlings", "result": "limited"}, {"measurement": "induction of ADH specific activity", "setting": "[2]; all four genotypes, non-stress conditions, caffeine 5 mM, 24 h", "result": "significantly higher levels than the maximal level observed in response to low oxygen"}, {"measurement": "caffeine promoted increase in ADH specific activity", "setting": "[2]; ropgap4-1 seedlings", "result": "dramatic"}]}, {"smiles": "c1ccc2c(c1)[I+]c1ccccc1-2", "note": "[DPI, diphenylene iodonium chloride]", "values": [{"measurement": "Viable Seedlings 48 h after Treatment", "setting": "[3]; 0 h oxygen deprivation", "result": 100, "unit": "Percentage"}, {"measurement": "Viable Seedlings 48 h after Treatment", "setting": "[3]; 6 h oxygen deprivation", "result": "80 ± 5", "unit": "Percentage"}, {"measurement": "Viable Seedlings 48 h after Treatment", "setting": "[3]; 12 h oxygen deprivation", "result": 0, "unit": "Percentage"}, {"measurement": "Viable Seedlings 48 h after Treatment", "setting": "[3]; 24 h oxygen deprivation", "result": 0, "unit": "Percentage"}, {"measurement": "duration of stress that WT seedlings survived", "setting": "[3]; oxygen deprivation with DPI (over 36 h without DPI)", "result": "less than 12 h"}, {"measurement": "effect on rise of GUS activity in response to low oxygen and caffeine", "setting": "[1]; DPI", "result": "blocked"}, {"measurement": "Viable Seedlings 48 h after Treatment", "setting": "[4]; 0 h oxygen deprivation", "result": 100, "unit": "Percentage"}, {"measurement": "Viable Seedlings 48 h after Treatment", "setting": "[4]; 6 h oxygen deprivation", "result": 100, "unit": "Percentage"}, {"measurement": "Viable Seedlings 48 h after Treatment", "setting": "[4]; 12 h oxygen deprivation", "result": "50 ± 5", "unit": "Percentage"}, {"measurement": "Viable Seedlings 48 h after Treatment", "setting": "[4]; 24 h oxygen deprivation", "result": 0, "unit": "Percentage"}, {"measurement": "effect on survival of O2 deprivation", "setting": "[4]; ropgap4-1 seedlings, DPI treatment", "result": "increased survival of O2 deprivation"}, {"measurement": "Viable Seedlings 48 h after Treatment", "setting": "[5]; 0 h oxygen deprivation", "result": 100, "unit": "Percentage"}, {"measurement": "Viable Seedlings 48 h after Treatment", "setting": "[5]; 6 h oxygen deprivation", "result": 100, "unit": "Percentage"}, {"measurement": "Viable Seedlings 48 h after Treatment", "setting": "[5]; 12 h oxygen deprivation", "result": 100, "unit": "Percentage"}, {"measurement": "Viable Seedlings 48 h after Treatment", "setting": "[5]; 24 h oxygen deprivation", "result": 0, "unit": "Percentage"}, {"measurement": "effect on survival of oxygen deprivation", "setting": "[5]; CA-rop2 seedlings, in the presence of DPI", "result": "improved"}, {"measurement": "effect on caffeine-stimulated increase in H2O2", "setting": "[6]", "result": "effectively blocked"}, {"measurement": "effect on ADH activity", "setting": "[2]; all four genotypes, control and low oxygen conditions, 30 μM DPI", "result": "reduced ADH activity"}, {"measurement": "effect on ADH induction", "setting": "[2]; ropgap4-1 seedlings, oxygen deprivation, DPI treatment", "result": "reduced ADH induction"}, {"measurement": "effect on caffeine-stimulated increase in ADH specific activity", "setting": "[2]; seedlings treated with caffeine and DPI for 24 h", "result": "effectively blocked"}, {"measurement": "Viable Seedlings 48 h after Treatment", "setting": "[7]; 0 h oxygen deprivation", "result": "90 ± 3", "unit": "Percentage"}, {"measurement": "Viable Seedlings 48 h after Treatment", "setting": "[7]; 6 h oxygen deprivation", "result": "70 ± 4", "unit": "Percentage"}, {"measurement": "Viable Seedlings 48 h after Treatment", "setting": "[7]; 12 h oxygen deprivation", "result": 0, "unit": "Percentage"}, {"measurement": "Viable Seedlings 48 h after Treatment", "setting": "[7]; 24 h oxygen deprivation", "result": 0, "unit": "Percentage"}, {"measurement": "effect on survival of oxygen deprivation", "setting": "[7]; DN-rop2 seedlings, in the presence of DPI", "result": "impaired"}]}]}
